Test results as given in patent US12139492B2 (Endotarget Inc., priority 2021, dated 2024).
Where two headings read alike, the source gives them in different places.

Key:
Mino cells = test: Antiproliferative effect, MTS cell viability assay, Mino cells; type: cell-based; conditions: Mino mantle cell lymphoma cells, read-out: IC50 (anti-proliferation) Mino cells
How it was run: (§1)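 Cells were exposed to compound at 0, 0.001, 0.01, 0.1, 1 and 10 μM for 72 h. Viability was then measured by MTS assay, reading formazan produced by metabolically active cells as absorbance at 490 nm.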

JeKo-1 cells = test: Antiproliferative effect, MTS cell viability assay, JeKo-1 cells; type: cell-based; conditions: JeKo-1 mantle cell lymphoma cells, read-out: IC50 (anti-proliferation) JeKO-1 cells
How it was run: as §1

BTK = BTK (Homo sapiens, UniProt Q06187); test: Degradation of BTK protein in Namalwa cells (Western blot; DC50, Dmax); conditions: for DC50: cell line not given
Chain of BTK (Q06187 whole entry): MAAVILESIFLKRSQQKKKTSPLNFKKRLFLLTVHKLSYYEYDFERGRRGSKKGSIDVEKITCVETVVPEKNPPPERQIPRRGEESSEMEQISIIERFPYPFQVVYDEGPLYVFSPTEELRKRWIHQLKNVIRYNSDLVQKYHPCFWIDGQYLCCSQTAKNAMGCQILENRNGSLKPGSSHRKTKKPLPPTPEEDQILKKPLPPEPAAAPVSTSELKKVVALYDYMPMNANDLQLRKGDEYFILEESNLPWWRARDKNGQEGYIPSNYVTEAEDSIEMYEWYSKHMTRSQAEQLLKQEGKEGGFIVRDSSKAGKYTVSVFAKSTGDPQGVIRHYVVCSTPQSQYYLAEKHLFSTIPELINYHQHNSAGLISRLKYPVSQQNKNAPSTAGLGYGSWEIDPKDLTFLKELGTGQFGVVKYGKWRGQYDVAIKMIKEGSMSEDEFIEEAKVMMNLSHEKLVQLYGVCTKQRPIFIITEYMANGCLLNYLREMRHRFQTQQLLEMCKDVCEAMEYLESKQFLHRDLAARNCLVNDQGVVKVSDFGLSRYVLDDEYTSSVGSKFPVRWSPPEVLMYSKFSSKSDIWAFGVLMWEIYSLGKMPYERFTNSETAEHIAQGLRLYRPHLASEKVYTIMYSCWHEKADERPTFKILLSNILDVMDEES

[1] = read-out: DC50 (BTK degradation), concentration giving 50% reduction of BTK expression level
[2] = read-out: Dmax (BTK degradation)

DC50 (BTK; [1])	Dmax (BTK; [2])	Dmax (BTK)	DC50 (BTK; BTK degradation)	degradation of BTK protein (BTK; Namalwa B lymphocyte cells, various concentrations, 24 hours, Western blot)	SMILES	IC50 (Mino cells; Homo sapiens, MINO)	IC50 (JeKo-1 cells; Homo sapiens)	IC50 (Mino cells)	IC50 (JeKo-1 cells)
< 0.01 µM	> 90%				NC(=O)c1c(-c2ccc(Oc3ccccc3)cc2)nn2c1NCC[C@H]2C1CCN(CC2CCN(C(=O)N3CCC(CC4CCN(c5ccc6c(c5)CN(C5CCC(=O)NC5=O)C6=O)CC4)CC3)CC2)CC1 (stereo partly drawn) [Compound 414, (7S)-7-(1-((1-(4-((1-(2-(2,6-dioxopiperidin-3-yl)-1-oxoisoindolin-5-yl)piperidin-4-yl)methyl)piperidine-1-carbonyl)piperidin-4-yl)methyl)piperidin-4-yl)-2-(4-phenoxyphenyl)-4,5,6,7-tetrahydropyrazolo[1,5-a]pyrimidine-3-carboxamide]	< 1 µM	< 1 µM		
		> 90%	< 0.01 µM		Nc1ncnc2c1c(-c1ccc(Oc3ccccc3)cc1)nn2C1CCN(C2CCN(C(=O)N3CCC(CN4CCC(c5ccc6c(c5)CN(C5CCC(=O)NC5=O)C6=O)CC4)CC3)CC2)CC1 (centres unmarked) [Compound 244, 3-(5-(1-((1-(4-(4-amino-3-(4-phenoxyphenyl)-1H-pyrazolo[3,4-d]pyrimidin-1-yl)-[1,4′-bipiperidine]-1′-carbonyl)piperidin-4-yl)methyl)piperidin-4-yl)-1-oxoisoindolin-2-yl)piperidine-2,6-dione]	1 to 10 µM	1 to 10 µM		
		> 90%	0.01 to 0.05 µM		Nc1ncnc2c1c(-c1ccc(Oc3ccccc3)cc1)nn2C1CCN(CC2CCN(CC3CCN(c4ccc5c(c4)C(=O)N(C4CCC(=O)NC4=O)C5=O)CC3)CC2)CC1 (centres unmarked) [Compound 199, 5-(4-((4-((4-(4-amino-3-(4-phenoxyphenyl)-1H-pyrazolo(3,4-d)pyrimidin-1-yl)piperidin-1-yl)methyl)piperidin-1-yl)methyl)piperidin-1-yl)-2-(2,6-dioxopiperidin-3-yl)isoindoline-1,3-dione]	< 1 µM	1 to 10 µM		
0.01 to 0.05 µM	> 75%				NC(=O)c1c(-c2ccc(Oc3ccccc3)cc2)nn2c1NCC[C@H]2C1CCN(CC2CCN(C(=O)N3CCC(N4CCC(c5ccc6c(c5)C(=O)N(C5CCC(=O)NC5=O)C6=O)CC4)CC3)CC2)CC1 (stereo partly drawn) [Compound 407, (7S)-7-(1-((1-(4-(2-(2,6-dioxopiperidin-3-yl)-1,3-dioxoisoindolin-5-yl)-[1,4′-bipiperidine]-1′-carbonyl)piperidin-4-yl)methyl)piperidin-4-yl)-2-(4-phenoxyphenyl)-4,5,6,7-tetrahydropyrazolo[1,5-a]pyrimidine-3-carboxamide]	1 to 10 µM	> 10 µM		
		> 75%	0.01 to 0.05 µM		NC(=O)c1c(-c2ccc(Oc3ccccc3)cc2)nn2c1NCCC2C1CCN(C2CCN(CCC3CCN(c4ccc5c(c4)C(=O)N(C4CCC(=O)NC4=O)C5=O)CC3)CC2)CC1 (centres unmarked) [Compound 309, 7-(1′-(2-(1-(2-(2,6-dioxopiperidin-3-yl)-1,3-dioxoisoindolin-5-yl)piperidin-4-yl)ethyl)-[1,4′-bipiperidin]-4-yl)-2-(4-phenoxyphenyl)-4,5,6,7-tetrahydropyrazolo[1,5-a]pyrimidine-3-carboxamide]	> 10 µM	> 10 µM		
		> 90%	0.01 to 0.05 µM		NC(=O)c1c(-c2ccc(Oc3ccccc3)cc2)nn2c1NCC[C@H]2C1CCN(C(=O)N2CCN(CCN3CCN(c4ccc5c(c4)CN(C4CCC(=O)NC4=O)C5=O)CC3)CC2)CC1 (stereo partly drawn) [Compound 298, (7S)-7-(1-(4-(2-(4-(2-(2,6-dioxopiperidin-3-yl)-1-oxoisoindolin-5-yl)piperazin-1-yl)ethyl)piperazine-1-carbonyl)piperidin-4-yl)-2-(4-phenoxyphenyl)-4,5,6,7-tetrahydropyrazolo[1,5-a]pyrimidine-3-carboxamide]	1 to 10 µM	1 to 10 µM		
< 0.01 µM	> 90%				Nc1ncnc2c1c(-c1ccc(Oc3ccccc3)cc1)nn2C1CCN(CC2CC(N3CCN(c4ccc5c(c4)C(=O)N(C4CCC(=O)NC4=O)C5=O)CC3)C2)CC1 (centres unmarked) [Compound 530, 5-(4-(3-((4-(4-amino-3-(4-phenoxyphenyl)-1H-pyrazolo[3,4-d]pyrimidin-1-yl)piperidin-1-yl)methyl)cyclobutyl)piperazin-1-yl)-2-(2,6-dioxopiperidin-3-yl)isoindoline-1,3-dione]	< 1 µM	< 1 µM		
> 0.05 µM	> 75%				Nc1ncnc2c1c(-c1ccc(Oc3ccccc3)cc1)nn2[C@@H]1CCCN(CC2CCN(C(=O)NC3CCC(=O)NC3=O)CC2)C1 (stereo partly drawn) [Compound 518, 4-(((R)-3-(4-amino-3-(4-phenoxyphenyl)-1H-pyrazolo[3,4-d]pyrimidin-1-yl)piperidin-1-yl)methyl)-N-(2,6-dioxopiperidin-3-yl)piperidine-1-carboxamide]	1 to 10 µM	1 to 10 µM		
< 0.01 µM	> 90%			dose-dependent degradation	Nc1ncnc2c1c(-c1ccc(Oc3ccccc3)cc1)nn2C1CCN(CCOCCOCCN2CCC(c3ccc4c(c3)C(=O)N(C3CCC(=O)NC3=O)C4=O)CC2)CC1 (centres unmarked) [Compound 418, 5-(1-(2-(2-(2-(4-(4-amino-3-(4-phenoxyphenyl)-1H-pyrazolo[3,4-d]pyrimidin-1-yl)piperidin-1-yl)ethoxy)ethoxy)ethyl)piperidin-4-yl)-2-(2,6-dioxopiperidin-3-yl)isoindoline-1,3-dione]			1 to 10 µM	1 to 10 µM
0.01 to 0.05 µM	> 90%				Nc1ncnc2c1c(-c1ccc(Oc3ccccc3)cc1)nn2C1CCN(C[C@H]2CCN(C[C@H]3CCN(c4ccc5c(c4)C(=O)N(C4CCC(=O)NC4=O)C5=O)C3)C2)CC1 (stereo partly drawn) [Compound 447a, 5-((R)-3-(((R)-3-((4-(4-amino-3-(4-phenoxyphenyl)-1H-pyrazolo[3,4-d]pyrimidin-1-yl)piperidin-1-yl)methyl)pyrrolidin-1-yl)methyl)pyrrolidin-1-yl)-2-(2,6-dioxopiperidin-3-yl)isoindoline-1,3-dione]	1 to 10 µM	1 to 10 µM		
> 0.05 µM	> 50%				Nc1ncnc2c1c(-c1ccc(Oc3ccccc3)cc1)nn2C1CCN(C2CCN(CCCCC#Cc3ccc(N4CCC(=O)NC4=O)cc3)C2)CC1 (centres unmarked) [Compound 536, 1-(4-(6-(3-(4-(4-amino-3-(4-phenoxyphenyl)-1H-pyrazolo[3,4-d]pyrimidin-1-yl)piperidin-1-yl)pyrrolidin-1-yl)hex-1-yn-1-yl)phenyl)dihydropyrimidine-2,4(1H,3H)-dione]	> 10 µM	> 10 µM		
		> 90%	< 0.01 µM		Nc1ncnc2c1c(-c1ccc(Oc3ccccc3)cc1)nn2C1CCN(C2CCN(C(=O)N3CCC(CC4CCN(c5ccc6c(c5)CN(C5CCC(=O)NC5=O)C6=O)CC4)CC3)CC2)CC1 (centres unmarked) [Compound 238, 3-(5-(4-((1-(4-(4-amino-3-(4-phenoxyphenyl)-1H-pyrazolo[3,4-d]pyrimidin-1-yl)-[1,4′-bipiperidine]-1′-carbonyl)piperidin-4-yl)methyl)piperidin-1-yl)-1-oxoisoindolin-2-yl)piperidine-2,6-dione]	< 1 µM	1 to 10 µM		
< 0.01 µM	> 90%				Nc1ncnc2c1c(-c1ccc(Oc3ccccc3)cc1)nn2C1CCN(CC2CN(C[C@@H]3CCN(c4ccc5c(c4)C(=O)N(C4CCC(=O)NC4=O)C5=O)C3)C2)CC1 (stereo partly drawn) [Compound 443b, 5-((S)-3-((3-((4-(4-amino-3-(4-phenoxyphenyl)-1H-pyrazolo[3,4-d]pyrimidin-1-yl)piperidin-1-yl)methyl)azetidin-1-yl)methyl)pyrrolidin-1-yl)-2-(2,6-dioxopiperidin-3-yl)isoindoline-1,3-dione]	< 1 µM	< 1 µM		
> 0.05 µM	> 50%				Nc1ncnc2c1c(-c1ccc(Oc3ccccc3)cc1)nn2C1CCN(C2CCN(CCCC#Cc3ccc(N4CCC(=O)NC4=O)cc3)CC2)CC1 [Compound 534, 1-(4-(5-(4-(4-amino-3-(4-phenoxyphenyl)-1H-pyrazolo[3,4-d]pyrimidin-1-yl)-[1,4′-bipiperidin]-1′-yl)pent-1-yn-1-yl)phenyl)dihydropyrimidine-2,4(1H,3H)-dione]	> 10 µM	> 10 µM		
0.01 to 0.05 µM	> 90%				Nc1ncnc2c1c(-c1ccc(Oc3ccccc3)cc1)nn2C1CCN(CCN2CCC(CC3CCN(c4ccc(NC5CCC(=O)NC5=O)cc4)CC3)C2)CC1 (centres unmarked) [Compound 564, 3-((4-(4-((1-(2-(4-(4-amino-3-(4-phenoxyphenyl)-1H-pyrazolo[3,4-d]pyrimidin-1-yl)piperidin-1-yl)ethyl)pyrrolidin-3-yl)methyl)piperidin-1-yl)phenyl)amino)piperidine-2,6-dione]	< 1 µM	< 1 µM		
		> 90%	< 0.01 µM		NC(=O)c1c(-c2ccc(Oc3ccccc3)cc2)nn2c1NCCC2C1CCN(C(=O)N2CCC(CN3CCC(c4ccc5c(c4)CN(C4CCC(=O)NC4=O)C5=O)CC3)CC2)CC1 (centres unmarked) [Compound 280, 7-(1-(4-((4-(2-(2,6-dioxopiperidin-3-yl)-1-oxoisoindolin-5-yl)piperidin-1-yl)methyl)piperidine-1-carbonyl)piperidin-4-yl)-2-(4-phenoxyphenyl)-4,5,6,7-tetrahydropyrazolo[1,5-a]pyrimidine-3-carboxamide]	1 to 10 µM	1 to 10 µM		
